According to PubChem BioAssay (NCI):
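How tested: cells in 96-well plates exposed to compound for 48 hours at five concentrations. GI50 marks 50% less growth. The concentration for full growth arrest is given as TGI.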

How the values were obtained:
Assay in all cases: NCI tumour cell line growth inhibition, 48 h
[1] = system: LOX IMVI melanoma
[2] = system: HCT-116 colon
[3] = system: ACHN renal
[4] = system: OVCAR-3 ovarian
[5] = system: SF-295 CNS
[6] = system: U251 CNS
[7] = system: NCI-H23 lung
[8] = system: SN12C renal
[9] = system: OVCAR-4 ovarian
[10] = system: MDA-MB-231 breast

Row | Compound | TGI [1] [µM] | TGI [2] [µM] | TGI [3] [µM] | TGI [4] [µM] | TGI [5] [µM] | TGI [6] [µM] | TGI [7] [µM] | TGI [8] [µM] | TGI [9] [µM] | TGI [10] [µM] | GI50 [3] [µM] | GI50 [6] [µM] | GI50 [7] [µM] | GI50 [10] [µM] | GI50 [1] [µM] | GI50 [2] [µM] | GI50 [4] [µM] | GI50 [5] [µM] | GI50 [8] [µM] | GI50 [9] [µM]
1 | NC(=O)CCSC(CC(=O)c1ccc(Cl)cc1)c1ccc(Cl)cc1 (stereo not drawn) | 25.5 | 70.4 | > 100 | 40.6 | 78.1 | 34.5 | > 100 | 83.2 | 45.2 | > 100 | – | – | – | – | – | – | – | – | – | –
2 | Cn1c(=O)ccc2c(=O)c3ccccc3oc21 | > 100 | > 100 | > 100 | > 100 | > 100 | > 100 | > 100 | > 100 | > 100 | > 100 | – | – | – | – | – | – | – | – | – | –
3 | O=S(=O)(O)c1ccc2c(N=Nc3ccccc3)c(O)ccc2c1 | > 100 | > 100 | > 100 | > 100 | > 100 | > 100 | > 100 | > 100 | > 100 | > 100 | – | – | – | – | – | – | – | – | – | –
4 | COc1cc(/C=C2\N=C(c3ccccc3)N(c3nc4ccc(Sc5ccccc5)cc4[nH]3)C2=O)cc(OC)c1OC | 61.7 | 55.2 | 57.7 | > 100 | 90.1 | 43.9 | 97.3 | 92.4 | > 100 | 50.3 | – | – | – | – | – | – | – | – | – | –
5 | Cn1c2cn[nH]c(=O)c2c2ccc3ccccc3c21 | 53.8 | > 100 | 45.9 | > 100 | 63.4 | 47.1 | 67.2 | > 100 | > 100 | 57.6 | – | – | – | – | – | – | – | – | – | –
6 | O=C(O)CCCN=C(C1=C(O)C(=O)N(c2ccccc2)C1=O)c1ccccc1 | > 100 | > 100 | > 100 | > 100 | > 100 | > 100 | > 100 | > 100 | > 100 | > 100 | – | – | – | – | – | – | – | – | – | –
7 | O=c1[nH]c2cc([N+](=O)[O-])c(N/N=C/c3ccc(Cl)cc3Cl)c([N+](=O)[O-])c2[nH]1 | > 100 | > 100 | > 100 | 35.3 | > 100 | > 100 | > 100 | > 100 | 94.6 | 60.5 | – | – | – | – | – | – | – | – | – | –
8 | N=C(N)c1ccc(N=Nc2c(O)ccc3cc4c(N=Nc5ccc(C(=N)N)cc5)c(O)ccc4cc23)cc1 | – | > 100 | > 100 | > 100 | > 100 | > 100 | – | > 100 | > 100 | > 100 | – | – | – | – | – | – | – | – | – | –
9 | C=C1c2nc3ccccc3n2C=C(c2ccc(Cl)cc2)N1c1ccc(OCCN2CCCCC2)cc1 | > 45 | > 45 | > 100 | > 45 | > 45 | > 100 | > 100 | > 45 | > 45 | > 100 | > 100 | 3.75 | > 100 | > 100 | – | – | – | – | – | –
10 | Cc1ccc(C(=O)Nc2ncn(C3CC(O)C(CO)O3)c(=O)n2)cc1 (stereo not drawn) | > 100 | > 100 | – | > 56.5 | > 100 | > 100 | > 100 | > 100 | > 100 | – | – | – | – | – | – | – | – | – | – | –
11 | N#Cc1c(-c2ccc(Cl)cc2)c2c([nH]c1=O)-c1cc([N+](=O)[O-])ccc1CCC2 | 37.9 | 31.9 | > 100 | 31.8 | 45.3 | 41.6 | 36.2 | 34.7 | > 100 | 57.3 | – | – | – | – | – | – | – | – | – | –
12 | O=C([CH-]C(=O)c1ccccc1)c1ccccc1.O=C([CH-]C(=O)c1ccccc1)c1ccccc1.O=C([CH-]C(=O)c1ccccc1)c1ccccc1.[Cl-].[Hf+4] | > 100 | 26.1 | > 100 | > 100 | > 100 | > 100 | 83.4 | > 100 | > 100 | – | 33.9 | 19.1 | 15.8 | – | 23.3 | 7.33 | 15.2 | 14.9 | 41.3 | 14.6
13 | C/C(=C\C(=N\NC(=N)N)c1ccccc1)c1ccccc1 | 2.56 | 1.1 | 1.17 | 1.03 | 1.87 | 2.04 | 4.01 | 3.09 | 3.16 | – | – | – | – | – | – | – | – | – | – | –
14 | O=CN1CCC23CC(O)CCC2C1Cc1cc(Oc2nnnn2-c2ccccc2)cc(O)c13 (stereo not drawn) | > 100 | > 100 | > 100 | > 100 | > 100 | > 100 | > 100 | > 100 | > 100 | > 100 | – | – | – | – | – | – | – | – | – | –
15 | CCN(CCO)CCNc1ccc(C)c2sc3ccccc3c(=O)c12 | 5.18 | 7.76 | 15 | 23.3 | 10.1 | 12.4 | 21.3 | 23.9 | 21.7 | 5.32 | – | – | – | – | – | – | – | – | – | –
16 | C=C1CC2C3C=C(C)C4=CC(=O)CC[C@]4(C)C3CC[C@]2(C)[C@@]1(OC(C)=O)C(C)=O (stereo partly drawn) | – | > 100 | – | – | – | – | – | > 100 | > 100 | – | – | – | – | – | – | 3.38 | – | – | 1.16 | 2.91
